How the values were obtained:
[1] = target: Axl (Homo sapiens (Human), UniProt P30530); assay: Inhibition of the phosphorylation of the kinase Axl in cellulo (immunoblot, Y779); assay type: cell-based; details: A549 cells, 2.5 μM compound 1 hour, 1 mM pervanadate 5 min
Protocol: FIG. 1: […] The A549 cells were preincubated for 1 hour with 2.5 μM of compounds targeting Axl. They were then stimulated for 5 min with 1 mM of pervanadate. The evaluation of the inhibition of the phosphorylation of the […] residue of the intracytoplasmic domain of Axl kinase is carried out by immunoblot using the antibody R&D Systems (AF2228) and measuring the intensity of the signals by densitometry (Image J) (P-Axl/Axl ratio). The A549 cells were preincubated for 1 hour with 2.5 μM of compound 1, 2, or 3. They were then stimulated for 5 min with 1 mM pervanadate, a compound known to activate the kinase Axl by phosphorylation. The inhibition of the phosphorylation of the […] residue of the intracytoplasmic domain of Axl is visualized by immunoblot using the antibody R&D Systems (AF2228).

[2] = target: ALK (Homo sapiens (Human), UniProt Q9UM73); assay: Kinase panel Z'-LYTE/Adapta SelectScreen; assay type: biochemical; details: 100 nM in 1% DMSO
ALK, sequence (Q9UM73 19-1620): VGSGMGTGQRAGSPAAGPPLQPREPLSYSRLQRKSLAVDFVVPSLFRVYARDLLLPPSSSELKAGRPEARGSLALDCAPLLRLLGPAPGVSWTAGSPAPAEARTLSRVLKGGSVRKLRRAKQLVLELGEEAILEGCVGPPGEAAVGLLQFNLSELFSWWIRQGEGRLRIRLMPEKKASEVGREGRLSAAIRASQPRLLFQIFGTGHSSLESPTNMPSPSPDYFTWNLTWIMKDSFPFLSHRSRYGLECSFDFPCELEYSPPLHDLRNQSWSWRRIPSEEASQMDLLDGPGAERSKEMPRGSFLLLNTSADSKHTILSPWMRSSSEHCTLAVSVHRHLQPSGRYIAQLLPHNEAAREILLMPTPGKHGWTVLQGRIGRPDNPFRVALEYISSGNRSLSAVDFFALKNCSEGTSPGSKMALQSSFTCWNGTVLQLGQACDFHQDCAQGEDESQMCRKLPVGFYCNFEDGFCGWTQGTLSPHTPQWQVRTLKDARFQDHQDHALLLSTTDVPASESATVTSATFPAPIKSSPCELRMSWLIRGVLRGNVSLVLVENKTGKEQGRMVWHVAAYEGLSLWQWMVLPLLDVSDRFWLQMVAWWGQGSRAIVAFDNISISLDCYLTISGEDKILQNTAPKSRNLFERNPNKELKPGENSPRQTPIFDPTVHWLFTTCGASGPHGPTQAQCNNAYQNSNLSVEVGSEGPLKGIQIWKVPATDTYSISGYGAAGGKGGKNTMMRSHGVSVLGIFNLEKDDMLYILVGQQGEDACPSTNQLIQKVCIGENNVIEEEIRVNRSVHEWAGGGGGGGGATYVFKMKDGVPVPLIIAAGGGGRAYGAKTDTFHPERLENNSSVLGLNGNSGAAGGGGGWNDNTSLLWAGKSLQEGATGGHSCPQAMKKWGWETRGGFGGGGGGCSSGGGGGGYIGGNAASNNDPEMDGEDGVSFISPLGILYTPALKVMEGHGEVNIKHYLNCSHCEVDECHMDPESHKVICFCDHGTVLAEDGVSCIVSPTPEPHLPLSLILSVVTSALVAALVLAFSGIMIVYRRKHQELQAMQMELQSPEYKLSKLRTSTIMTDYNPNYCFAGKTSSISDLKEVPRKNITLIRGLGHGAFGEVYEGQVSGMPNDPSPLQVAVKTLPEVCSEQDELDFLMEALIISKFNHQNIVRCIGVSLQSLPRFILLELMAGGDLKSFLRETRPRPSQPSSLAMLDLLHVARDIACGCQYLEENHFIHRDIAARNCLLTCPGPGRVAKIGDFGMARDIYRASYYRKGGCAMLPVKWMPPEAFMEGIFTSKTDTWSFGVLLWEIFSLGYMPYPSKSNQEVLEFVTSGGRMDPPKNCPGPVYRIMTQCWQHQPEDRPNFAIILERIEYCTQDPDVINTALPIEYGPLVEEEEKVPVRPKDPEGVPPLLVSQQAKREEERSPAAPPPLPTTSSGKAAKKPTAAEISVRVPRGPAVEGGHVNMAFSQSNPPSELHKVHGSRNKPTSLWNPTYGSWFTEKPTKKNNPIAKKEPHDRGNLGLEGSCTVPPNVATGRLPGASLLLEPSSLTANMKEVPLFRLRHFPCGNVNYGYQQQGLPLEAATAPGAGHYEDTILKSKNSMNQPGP
Protocol: (§1) The inhibitory activity of the compounds on a panel of kinases including, inter alia, AXL and FLT3 was evaluated by Thermo Fisher Scientific using Z′-LYTE® and Adapta® Select Screen technology.
(§2) The fluorescence-based biochemical test uses coupled enzymes and is based on the difference in sensitivity of the phosphorylated and non-phosphorylated peptides to proteolytic cleavage. The peptide substrate is labeled with 2 fluorophores—one at each end—allowing fluorescence transfer (FRET).
(§3) Compounds 1, 2 and 3 are tested in wells at the final concentration of 100 nM in 1% DMSO.

[3] = target: AURKA (Aurora A) (Homo sapiens (Human), UniProt O14965); assay: Kinase panel Z'-LYTE/Adapta SelectScreen; assay type: biochemical; details: 100 nM in 1% DMSO
AURKA (Aurora A), sequence (O14965 whole entry): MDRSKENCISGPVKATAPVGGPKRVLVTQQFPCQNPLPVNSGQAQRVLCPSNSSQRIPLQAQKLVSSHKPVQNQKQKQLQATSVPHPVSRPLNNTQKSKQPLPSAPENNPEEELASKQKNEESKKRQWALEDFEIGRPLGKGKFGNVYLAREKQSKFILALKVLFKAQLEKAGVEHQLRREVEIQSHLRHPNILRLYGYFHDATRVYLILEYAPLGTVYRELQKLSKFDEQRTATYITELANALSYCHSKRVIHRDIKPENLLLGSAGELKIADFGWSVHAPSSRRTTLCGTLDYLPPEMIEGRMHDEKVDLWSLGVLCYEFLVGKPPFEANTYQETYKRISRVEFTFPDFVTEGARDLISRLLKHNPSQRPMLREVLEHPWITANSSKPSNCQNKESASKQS
Protocol: as §1, §2, §3

[4] = target: CHUK (IKKalpha) (Homo sapiens (Human), UniProt O15111); assay: Kinase panel Z'-LYTE/Adapta SelectScreen; assay type: biochemical; details: 100 nM in 1% DMSO
Protocol: as §1, §2, §3

[5] = target: CSK (Homo sapiens (Human), UniProt P41240); assay: Kinase panel Z'-LYTE/Adapta SelectScreen; assay type: biochemical; details: 100 nM in 1% DMSO
Protocol: as §1, §2, §3

[6] = target: FGFR2 (Homo sapiens (Human), UniProt P21802); assay: Kinase panel Z'-LYTE/Adapta SelectScreen; assay type: biochemical; details: 100 nM in 1% DMSO
FGFR2, sequence (P21802 22-821): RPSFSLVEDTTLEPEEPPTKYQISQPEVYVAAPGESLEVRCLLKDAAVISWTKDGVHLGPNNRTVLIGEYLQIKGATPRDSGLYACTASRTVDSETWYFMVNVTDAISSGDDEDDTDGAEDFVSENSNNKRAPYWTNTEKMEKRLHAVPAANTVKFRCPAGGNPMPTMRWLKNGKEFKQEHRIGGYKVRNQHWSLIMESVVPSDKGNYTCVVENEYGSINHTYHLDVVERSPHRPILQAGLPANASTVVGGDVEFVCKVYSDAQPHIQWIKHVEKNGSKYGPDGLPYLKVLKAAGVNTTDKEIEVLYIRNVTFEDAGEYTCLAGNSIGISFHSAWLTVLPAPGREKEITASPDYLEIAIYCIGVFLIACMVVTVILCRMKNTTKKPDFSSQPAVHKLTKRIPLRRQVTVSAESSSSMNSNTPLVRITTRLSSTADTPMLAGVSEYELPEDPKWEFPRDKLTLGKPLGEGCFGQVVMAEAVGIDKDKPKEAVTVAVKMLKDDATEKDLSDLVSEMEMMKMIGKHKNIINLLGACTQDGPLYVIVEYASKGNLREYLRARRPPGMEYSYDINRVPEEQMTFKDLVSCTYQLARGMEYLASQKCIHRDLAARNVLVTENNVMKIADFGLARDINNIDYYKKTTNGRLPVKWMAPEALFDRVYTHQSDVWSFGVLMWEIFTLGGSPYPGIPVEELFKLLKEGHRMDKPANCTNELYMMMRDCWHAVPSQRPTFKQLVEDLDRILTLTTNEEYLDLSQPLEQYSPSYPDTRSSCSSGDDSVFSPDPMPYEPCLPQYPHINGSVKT
Protocol: as §1, §2, §3

[7] = target: IKBKB (IKK beta) (Homo sapiens (Human), UniProt O14920); assay: Kinase panel Z'-LYTE/Adapta SelectScreen; assay type: biochemical; details: 100 nM in 1% DMSO
Protocol: as §1, §2, §3

[8] = target: KIT (Homo sapiens (Human), UniProt P10721); assay: Kinase panel Z'-LYTE/Adapta SelectScreen; assay type: biochemical; details: 100 nM in 1% DMSO
KIT, sequence (P10721 26-976): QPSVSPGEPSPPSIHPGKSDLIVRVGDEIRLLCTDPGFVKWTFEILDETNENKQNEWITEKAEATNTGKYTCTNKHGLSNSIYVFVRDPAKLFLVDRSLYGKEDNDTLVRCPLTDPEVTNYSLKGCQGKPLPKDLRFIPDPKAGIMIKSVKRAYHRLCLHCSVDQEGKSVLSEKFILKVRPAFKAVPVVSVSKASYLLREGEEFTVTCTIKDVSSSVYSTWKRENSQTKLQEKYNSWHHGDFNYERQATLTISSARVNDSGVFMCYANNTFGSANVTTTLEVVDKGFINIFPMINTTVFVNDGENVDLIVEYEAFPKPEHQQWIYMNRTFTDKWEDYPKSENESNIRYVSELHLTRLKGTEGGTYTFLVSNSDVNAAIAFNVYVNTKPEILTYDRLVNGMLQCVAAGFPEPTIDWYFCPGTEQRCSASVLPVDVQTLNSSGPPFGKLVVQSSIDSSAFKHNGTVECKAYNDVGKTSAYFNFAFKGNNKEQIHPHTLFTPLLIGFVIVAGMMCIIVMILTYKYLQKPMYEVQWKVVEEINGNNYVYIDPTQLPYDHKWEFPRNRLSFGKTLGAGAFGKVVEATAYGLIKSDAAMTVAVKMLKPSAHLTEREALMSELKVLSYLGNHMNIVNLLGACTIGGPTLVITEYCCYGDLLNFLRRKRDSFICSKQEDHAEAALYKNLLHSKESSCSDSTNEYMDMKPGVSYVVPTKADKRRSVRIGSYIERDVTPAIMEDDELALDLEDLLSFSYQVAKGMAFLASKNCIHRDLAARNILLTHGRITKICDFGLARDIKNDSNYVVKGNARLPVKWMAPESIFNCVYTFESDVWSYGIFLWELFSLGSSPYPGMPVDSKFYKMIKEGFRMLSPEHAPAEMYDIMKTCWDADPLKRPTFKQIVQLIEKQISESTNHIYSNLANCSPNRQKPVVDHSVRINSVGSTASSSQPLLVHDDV
Protocol: as §1, §2, §3

[9] = target: LCK (Homo sapiens (Human), UniProt P06239); assay: Kinase panel Z'-LYTE/Adapta SelectScreen; assay type: biochemical; details: 100 nM in 1% DMSO
Protocol: as §1, §2, §3

[10] = target: PLK1 (Homo sapiens (Human), UniProt P53350); assay: Kinase panel Z'-LYTE/Adapta SelectScreen; assay type: biochemical; details: 100 nM in 1% DMSO
Protocol: as §1, §2, §3

[11] = target: PRKAA (PKA) (Homo sapiens (Human), UniProt P17612); assay: Kinase panel Z'-LYTE/Adapta SelectScreen; assay type: biochemical; details: 100 nM in 1% DMSO
Protocol: as §1, §2, §3

[12] = target: RET (Homo sapiens (Human), UniProt P07949); assay: Kinase panel Z'-LYTE/Adapta SelectScreen; assay type: biochemical; details: 100 nM in 1% DMSO
Protocol: as §1, §2, §3

[13] = target: ROS1 (Homo sapiens (Human), UniProt P08922); assay: Kinase panel Z'-LYTE/Adapta SelectScreen; assay type: biochemical; details: 100 nM in 1% DMSO
Protocol: as §1, §2, §3

[14] = target: TEK (Tie2) (Homo sapiens (Human), UniProt Q02763); assay: Kinase panel Z'-LYTE/Adapta SelectScreen; assay type: biochemical; details: 100 nM in 1% DMSO
TEK (Tie2), sequence (Q02763 23-1124): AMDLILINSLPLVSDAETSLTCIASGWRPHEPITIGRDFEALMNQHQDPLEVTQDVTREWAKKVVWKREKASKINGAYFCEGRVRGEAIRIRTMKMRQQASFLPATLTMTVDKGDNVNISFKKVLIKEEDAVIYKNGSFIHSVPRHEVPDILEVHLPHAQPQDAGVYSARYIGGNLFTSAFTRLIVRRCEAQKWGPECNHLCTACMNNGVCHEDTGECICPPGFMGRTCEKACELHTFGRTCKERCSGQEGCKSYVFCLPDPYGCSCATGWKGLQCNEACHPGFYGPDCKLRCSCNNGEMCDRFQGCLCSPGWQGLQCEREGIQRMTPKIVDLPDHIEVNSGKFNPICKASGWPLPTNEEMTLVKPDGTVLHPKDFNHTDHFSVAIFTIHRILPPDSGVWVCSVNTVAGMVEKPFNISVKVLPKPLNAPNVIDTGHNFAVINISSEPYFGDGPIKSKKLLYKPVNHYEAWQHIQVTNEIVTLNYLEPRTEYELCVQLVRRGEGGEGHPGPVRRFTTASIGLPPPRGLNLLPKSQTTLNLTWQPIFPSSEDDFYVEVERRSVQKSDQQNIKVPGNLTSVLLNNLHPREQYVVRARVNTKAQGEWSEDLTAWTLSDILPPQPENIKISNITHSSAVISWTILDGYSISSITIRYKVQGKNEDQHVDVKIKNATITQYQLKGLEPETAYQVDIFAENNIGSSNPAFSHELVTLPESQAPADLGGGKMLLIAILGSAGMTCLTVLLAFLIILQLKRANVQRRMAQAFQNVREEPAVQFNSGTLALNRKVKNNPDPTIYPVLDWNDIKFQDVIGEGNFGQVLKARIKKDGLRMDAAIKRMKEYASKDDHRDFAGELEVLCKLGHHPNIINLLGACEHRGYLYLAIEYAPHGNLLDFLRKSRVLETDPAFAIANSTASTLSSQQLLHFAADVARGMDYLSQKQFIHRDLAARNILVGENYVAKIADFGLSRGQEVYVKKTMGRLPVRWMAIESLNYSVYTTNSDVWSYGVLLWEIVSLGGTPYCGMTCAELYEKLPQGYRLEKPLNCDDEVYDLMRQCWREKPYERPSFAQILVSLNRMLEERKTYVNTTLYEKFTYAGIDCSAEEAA
Protocol: as §1, §2, §3

[15] = target: YES1 (Homo sapiens (Human), UniProt P07947); assay: Kinase panel Z'-LYTE/Adapta SelectScreen; assay type: biochemical; details: 100 nM in 1% DMSO
Protocol: as §1, §2, §3

[16] = tested on: ZIKV BeH8 strain; assay: Antiviral activity against the Zika virus in HeLa cells; assay type: cell-based; details: for concentration at which infection of the Hela cells by the strain ZIKV BeH-8 is prevented: 24 h, qRT-PCR; for concentration at which infection of the Hela cells by the strain ZIKV BeH-8 is prevented / IC50: HeLa cells; for IC50: BeH-8 strain, MOI=0.1, 24 h; for active on infectious model ZIKV: summary table
[17] = tested on: SARS-COV-2 virus, BetaCoV/France/IDF0371/2020; assay: Anti-SARS-COV-2 activity in VeroE6 cells; assay type: cell-based; details: MOI=0.01, 24 hours, qRT-PCR; for infection of the VeroE6 cells by the SARS-COV-2 virus: 1.25 μM; for IC50: Vero E6 cells
Protocol: FIG. 7: Anti-SARS-COV-2 activity of compounds 1, 2, 3, 10 and 14 determined in the VeroE6 line. The cells were preincubated for 1 hour with compounds at a concentration of 1.25 μM, then infected with the viral strain BetaCoV/France/IDF0371/2020 (MOI=0.01). The cells were kept in culture for 24 hours in the presence of the compound. The residual viral replication is measured by quantification of the viral RNA in the cell culture by qRT-PCR. The control condition is obtained by incubation of cells in the presence of the dilution solvent DMSO (0). The values are averages of triplicates+standard deviation.
(§4) The inhibitory activity of the compounds of the invention on the infection by SARS-COV-2 was evaluated in vitro by infection of three relevant lines for the study of this pathogen: the green monkey line VeroE6 (immortalized kidney epithelium, ATCC #CRL-1586), the A549-ACE2 line produced by transfection of the ACE2 receptor in the A549 line (pulmonary epithelial carcinoma; ATCC #CCL-185), commercial primary bronchial epithelium cells (Mucilair Epithelix).
(§5) The infection tests are carried out by preincubating 4×10^4 VeroE6 or A549-ACE2 cells, cultivated in a 96-well plate, with the indicated concentrations of compounds for 1 hour. The cells are cultivated in a 5% CO2 atmosphere in a Dulbecco's modified Eagle's medium (DMEM) comprising 2% calf serum and 1% penicillin/streptomycin. The cells were then exposed to the SARS-COV-2 virus, BetaCoV/France/IDF0371/2020 (MOI=0.01) for 2 hours in the presence of the compounds before elimination of the innoculum, washing and culturing the cells in the presence of the compounds. 24 h after the viral challenge, the infection is quantified by amplification of the viral RNA by qRT-PCR using the Luna Universal One-Step RT-PCR kit. The values (DCT) are normalized by the GAPDH mRNA. The values represented are averages of triplicates+standard deviation. The control conditions were carried out by incubating the cells in the presence of DMSO, the solvent used for the solubilization of the compounds tested. The volumes of DMSO used under these conditions correspond to the volumes provided by the compounds under the test conditions.
IC50 compounds 1, 2 and 3 were determined on the VeroE6 and A549-ACE2 cells using the software Graphpad Prism.

[18] = tested on: SARS-COV-2 virus, BetaCoV/France/IDF0371/2020; assay: Anti-SARS-COV-2 activity in A549-ACE2 cells; assay type: cell-based; details: MOI=0.01, 24 hours, qRT-PCR; for infection of the A549-ACE2 cells by the SARS-COV-2 virus: 1.25 μM; for IC50: A549-ACE2 cells
[19] = tested on: SARS-COV-2; assay: Summary of activity on the SARS-COV-2 infectious models; assay type: cell-based; details: summary table
Protocol: as §4, §5

| SMILES | activation (phosphorylation) of the Y779 residue of AxL compared to the control (DMSO) [1] | Percentage inhibition ALK [2] [%] | Percentage inhibition AURKA (Aurora A) [3] [%] | Percentage inhibition CHUK (IKKalpha) [4] [%] | Percentage inhibition CSK [5] [%] | Percentage inhibition FGFR2 [6] [%] | Percentage inhibition IKBKB (IKK beta) [7] [%] | Percentage inhibition KIT [8] [%] | Percentage inhibition LCK [9] [%] | Percentage inhibition PLK1 [10] [%] | Percentage inhibition PRKAA (PKA) [11] [%] | Percentage inhibition RET [12] [%] | Percentage inhibition ROS1 [13] [%] | Percentage inhibition TEK (Tie2) [14] [%] | Percentage inhibition YES1 [15] [%] | concentration at which infection of the Hela cells by the strain ZIKV BeH-8 is prevented [16] | infection of the VeroE6 cells by the SARS-COV-2 virus [17] | infection of the A549-ACE2 cells by the SARS-COV-2 virus [18] | IC50 [18] [nM] | active on infectious model SARS-COV-2 [19] | further results |
| --- | --- | --- | --- | --- | --- | --- | --- | --- | --- | --- | --- | --- | --- | --- | --- | --- | --- | --- | --- | --- | --- |
| CN1CCN(Cc2cccc(-c3cnc4[nH]cc(-c5cc(CNCc6ccccc6)ccc5F)c4c3)c2)CC1 [Compound 2] | much lower or even zero activation | 12 | 11 | 14 | 12 | 25 | 28 | 49 | 63 | 4 | 6 | 48 | 77 | 88 | 15 | greater than or equal to 150 nM | prevent the infection | prevent the infection | 57 | ACTIVE | IC50 [16]: 25 nM; active on infectious model ZIKV [16]: ACTIVE; IC50 [17]: 289 nM |
| CN1CCN(Cc2cccc(-c3cnc4[nH]cc(-c5cc(CNCCc6ccc(O)cc6)ccc5F)c4c3)c2)CC1 [Compound 1] | much lower or even zero activation | 45 | 14 | 43 | 7 | 58 | 33 | 8 | 50 | 4 | 8 | 84 | 64 | 13 | 18 | greater than or equal to 150 nM | prevent the infection | prevent the infection | 19 | ACTIVE | IC50 [16]: 198 nM; active on infectious model ZIKV [16]: ACTIVE; IC50 [17]: 77 nM |
| CN1CCN(Cc2cccc(-c3cnc4[nH]cc(-c5cc(NC(=O)Nc6ccccc6)ccc5F)c4c3)c2)CC1 [Compound 3] | much lower or even zero activation | 17 | 14 | 4 | 8 | 37 | 13 | 15 | 42 | 6 | 7 | 23 | 18 | 27 | 11 | greater than or equal to 150 nM | prevent the infection | prevent the infection | 38 | ACTIVE | – |
